Where a name gives a salt, the structure may show the parent alone.
Biological target: T1, apelin receptor (APJ) (Homo sapiens, UniProt P35414)
T1 sequence (P35414 1-380): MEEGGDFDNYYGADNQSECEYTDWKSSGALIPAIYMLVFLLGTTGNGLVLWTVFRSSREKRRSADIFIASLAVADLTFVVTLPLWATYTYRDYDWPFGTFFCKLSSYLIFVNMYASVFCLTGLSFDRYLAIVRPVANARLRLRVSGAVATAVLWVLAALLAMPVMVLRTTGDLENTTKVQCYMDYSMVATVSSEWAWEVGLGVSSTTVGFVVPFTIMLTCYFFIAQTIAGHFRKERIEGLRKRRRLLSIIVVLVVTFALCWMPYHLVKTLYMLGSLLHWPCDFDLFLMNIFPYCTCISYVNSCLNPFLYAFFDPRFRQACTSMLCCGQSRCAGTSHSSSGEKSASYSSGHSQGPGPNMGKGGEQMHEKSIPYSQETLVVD
Experiment: In vitro apelin agonist activity (methods of Giddings et al., Apelin-13 as positive control)
Type: cell-based
Details: in vitro apelin agonist activity, methods of Giddings et al., Apelin-13 as positive control; read-out: EC50 (nM) Ave
Source text: Characterization of the Apelin Agonist Activity of the Compounds
1:39-47, the contents of which are hereby incorporated by reference in its entirety. Using the methods described in Giddings et al. and Apelin-13 as a positive control.

| Compound | EC50 |
| --- | --- |
| COc1cccc(OC)c1-c1cc(C(=O)N[C@@H](/C=C/c2ccncc2)CC(=O)NC2CCC2)nn1C1CCCC1 [compound 419, (3R,4E)-N-cyclobutyl-3-{[1-cyclopentyl-5-(2,6-dimethoxyphenyl)-1H-pyrazol-3-yl]formamido}-5-(pyridin-4-yl)pent-4-enamide] | > 10000 nM |
| O=C(C[C@H](CCN1CCCCC1)NC(=O)c1cc(-c2ccccc2Cl)n(C2CCCC2)n1)NC1CCC1 [compound 407, (3S)-3-{[5-(2-chlorophenyl)-1-cyclopentyl-1H-pyrazol-3-yl]formamido}-N-cyclobutyl-5-(piperidin-1-yl)pentanamide] | 162 nM |
| COc1cccc(OC)c1-c1cc(C(=O)N[C@@H](CCN2C(C)CCCC2C)CC(=O)NC2CCC2)nn1C1CCCC1 (stereo partly drawn) [compound 329, (3S)-N-cyclobutyl-3-{[1-cyclopentyl-5-(2,6-dimethoxyphenyl)-1H-pyrazol-3-yl]formamido}-5-(2,6-dimethylpiperidin-1-yl)pentanamide] | 170 nM |
| O=C(N[C@@H](CC1CCCC1)C(=O)O)c1cc(-c2ccccc2C(F)(F)F)n(C2CCCC2)n1 [compound 526, (2S)-3-cyclopentyl-2-({1-cyclopentyl-5-[2-(trifluoromethyl)phenyl]-1H-pyrazol-3-yl}formamido)propanoic acid] | 1720 nM |
| COc1ccccc1-c1cc(C(=O)N[C@@H](CCN2CCCCC2)CC(=O)NC2CCC2)nn1C1CCCC1 [compound 361, (3S)-N-cyclobutyl-3-{[1-cyclopentyl-5-(2-methoxyphenyl)-1H-pyrazol-3-yl]formamido}-5-(piperidin-1-yl)pentanamide] | 234 nM |

More lines, now with the values ahead:

| EC50 | Compound |
| --- | --- |
| 982 nM | COCCN(C)C(=O)[C@H](CCc1ccccc1)NC(=O)c1nc(-c2ncccc2C(F)(F)F)n(C2CCCC2)n1 [compound 564] |
| 110 nM | O=C(O)C[C@H](CCN1CCC(F)(F)CC1)NC(=O)c1cc(-c2ccccc2C(F)(F)F)n(C2CCCC2)n1 [compound 424, (3S)-3-({1-cyclopentyl-5-[2-(trifluoromethyl)phenyl]-1H-pyrazol-3-yl}formamido)-5-(4,4-difluoropiperidin-1-yl)pentanoic acid] |
| 16 nM | CC(F)(F)c1ccccc1-c1cc(C(=O)N[C@@H](CCN2CCCC(F)(F)C2)CC(=O)O)nn1C1CCCC1 [compound 432, (3S)-3-({1-cyclopentyl-5-[2-(1,1-difluoroethyl)phenyl]-1H-pyrazol-3-yl}formamido)-5-(3,3-difluoropiperidin-1-yl)pentanoic acid] |
| 353 nM | O=C(O)C[C@H](CCNC1(C(F)(F)F)CCCC1)NC(=O)c1cc(-c2ccccc2C(F)(F)F)n(C2CCCC2)n1 [compound 615, (3S)-3-({1-cyclopentyl-5-[2-(trifluoromethyl)phenyl]-1H-pyrazol-3-yl}formamido)-5-{[1-(trifluoromethyl)cyclopentyl]amino}pentanoic acid trifluoroacetate] |
| 3310 nM | COc1cccc(OC)c1-c1cc(C(=O)N[C@@H](CCC2CCN(C)CC2)CC(=O)NC2CCC2)nn1C1CCCC1 [compound 421, (3S)-N-cyclobutyl-3-{[1-cyclopentyl-5-(2,6-dimethoxyphenyl)-1H-pyrazol-3-yl]formamido}-5-(1-methylpiperidin-4-yl)pentanamide] |
| 79 nM | O=C(C[C@H](CC(=O)N1CCCCC1)NC(=O)c1cc(-c2ccccc2C(F)(F)F)n(C2CCCC2)n1)NC1CCC1 [compound 514, (3R)-N-cyclobutyl-3-({1-cyclopentyl-5-[2-(trifluoromethyl)phenyl]-1H-pyrazol-3-yl}formamido)-5-oxo-5-(piperidin-1-yl)pentanamide] |
| 1480 nM | O=C(O)C[C@H](CCN1CCCC(F)(F)C1)NC(=O)c1cc(-c2ccccc2C(F)(F)F)n(C2CCOCC2)n1 [compound 553, (3S)-5-(3,3-difluoropiperidin-1-yl)-3-{[1-(oxan-4-yl)-5-[2-(trifluoromethyl)phenyl]-1H-pyrazol-3-yl]formamido}pentanoic acid] |
